IC50 data for 31 compounds are collected here from US20240018122A1, “PYRIDAZINYL AMINO DERIVATIVES AS ALK5 INHIBITORS” (CHIESI FARMACEUTICI S.P.A., priority 2020, published 2024).

Broadly, the IC50 is the midpoint of a concentration-inhibition curve.

Structures are written as SMILES.

human ALK5, sequence (P36897 80-503 limits assumed): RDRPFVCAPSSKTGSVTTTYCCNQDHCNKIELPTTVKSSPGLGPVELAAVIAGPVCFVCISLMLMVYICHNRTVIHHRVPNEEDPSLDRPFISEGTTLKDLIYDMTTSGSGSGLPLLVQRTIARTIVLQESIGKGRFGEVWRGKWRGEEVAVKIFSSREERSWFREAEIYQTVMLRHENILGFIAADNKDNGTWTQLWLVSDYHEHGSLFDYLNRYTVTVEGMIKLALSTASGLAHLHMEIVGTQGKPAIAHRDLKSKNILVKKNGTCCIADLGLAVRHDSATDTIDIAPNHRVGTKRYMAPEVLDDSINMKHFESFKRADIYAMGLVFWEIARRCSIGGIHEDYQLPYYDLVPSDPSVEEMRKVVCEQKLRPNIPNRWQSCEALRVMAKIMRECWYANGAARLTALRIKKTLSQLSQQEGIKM

The first assay has as its target human ALK5 (Homo sapiens (Human), UniProt P36897). Description: ADP-GLO Kinases assay, inhibitory activity on ALK5. It is filed as biochemical.
Conditions: not given
Here is the method:
The enzymatic activity of compounds of the present invention was monitored measuring the formation of ADP using the ADP-GLO Kinases assay. Following the incubation of the purified enzyme, a substrate and ATP, the produced ADP was converted into ATP, which in turn was converted into light by Ultra-Glo Luciferase. The luminescent signal positively correlated with ADP amount and kinase activity. […] The assay was performed in 384-well format and was validated using a selection of reference compounds that was tested in 11 point concentration-response curve.
Regarding `CN1CCN(C(=O)Oc2ccc3c(Nc4cnnc(-c5cc(Cl)ccc5F)c4)ccnc3c2)CC1` [Example 28, 4-{[6-(5-Chloro-2-Fluorophenyl)Pyridazin-4-Yl]Amino}Quinolin-7-Yl 4-Methylpiperazine-1-Carboxylate], the IC50 was in the range of 1 to 5 nM. The compound `CN1CCN(CCN(C)C(=O)Oc2ccc3c(Nc4cnnc(-c5cc(Cl)ccc5F)c4)ccnc3c2)CC1` [Example 45, 4-{[6-(5-Chloro-2-Fluorophenyl)Pyridazin-4-Yl]Amino}Quinolin-7-Yl N-Methyl-N-[2-(4-Methylpiperazin-1-Yl)Ethyl]Carbamate] registered an IC50 of 1 to 5 nM. For the compound `CN1CCC(CCN(C)C(=O)Oc2ccc3c(Nc4cnnc(-c5cc(Cl)ccc5F)c4)ccnc3c2)CC1` [Example 51, 4-{[6-(5-Chloro-2-Fluorophenyl)Pyridazin-4-Yl]Amino}Quinolin-7-Yl N-Methyl-N-[2-(1-Methylpiperidin-4-Yl)Ethyl]Carbamate], the IC50 fell in the range of 1 to 5 nM. On the same count and under the same terms, with `CS(=O)(=O)CCN1CCN(C(=O)Oc2ccc3c(Nc4cnnc(-c5cc(Cl)ccc5F)c4)ccnc3c2)CC1` [Example 53, 4-{[6-(5-Chloro-2-Fluorophenyl)Pyridazin-4-Yl]Amino}Quinolin-7-Yl 4-(2-Methanesulfonylethyl)Piperazine-1-Carboxylate] the figure was 1 to 5 nM; with `O=C(Oc1ccc2c(Nc3cnnc(-c4cc(Cl)ccc4F)c3)ccnc2c1)N1CCN(CCO)CC1` [Example 57, 4-{[6-(5-Chloro-2-Fluorophenyl)Pyridazin-4-Yl]Amino}Quinolin-7-Yl 4-(2-Hydroxyethyl)Piperazine-1-Carboxylate], 1 to 5 nM.

The same assay, now with this note: purified recombinant human ALK5 2.6 nM, TGFβ1 peptide substrate, 25° C, 150 min incubation, ADP-Glo detection; read-out: ALK5 IC50.
On to `CN1CCN(CCCOc2ccc3c(Nc4cnnc(-c5cc(Cl)ccc5F)c4)ccnc3c2)CC1` [Example 29, N-[6-(5-Chloro-2-Fluorophenyl)Pyridazin-4-Yl]-7-[3-(4-Methylpiperazin-1-Yl)Propoxy]Quinolin-4-Amine], for which the IC50 is below 1 nM. In the case of `CCN1CCN(CCOc2ccc3c(Nc4cnnc(-c5cc(Cl)ccc5F)c4)ccnc3c2)CC1` [Example 30, N-[6-(5-Chloro-2-Fluorophenyl)Pyridazin-4-Yl]-7-[2-(4-Ethylpiperazin-1-Yl)Ethoxy]Quinolin-4-Amine], the IC50 is below 1 nM. Turning to `CC(=O)N1CCN(CCC(=O)Nc2cc(Nc3cnnc(-c4cc(Cl)ccc4F)c3)ccn2)CC1` [Example 31, 3-(4-Acetylpiperazin-1-Yl)-N-(4-{[6-(5-Chloro-2-Fluorophenyl)Pyridazin-4-Yl]Amino}Pyridin-2-Yl)Propanamide], the IC50 is below 1 nM. On the same count and under the same terms, next, `CN1CCN(CCC(=O)Nc2ccc3c(Nc4cnnc(-c5cc(Cl)ccc5F)c4)ccnc3c2)CC1` [Example 32, N-(4-{[6-(5-Chloro-2-Fluorophenyl)Pyridazin-4-Yl]Amino}Quinolin-7-Yl)-3-(4-Methylpiperazin-1-Yl)Propanamide]: below 1 nM. Same read-out and setting: next, `CN1CCCN(CCC(=O)Nc2cc(Nc3cnnc(-c4cc(Cl)ccc4F)c3)ccn2)C1` [Example 33, N-(4-{[6-(5-Chloro-2-Fluorophenyl)Pyridazin-4-Yl]Amino}Pyridin-2-Yl)-3-(3-Methyl-1,3-Diazinan-1-Yl)Propanamide]: below 1 nM. For the compound `CS(=O)(=O)N1CCN(CCC(=O)Nc2cc(Nc3cnnc(-c4cc(Cl)ccc4F)c3)ccn2)CC1` [Example 34, N-(4-{[6-(5-Chloro-2-Fluorophenyl)Pyridazin-4-Yl]Amino}Pyridin-2-Yl)-3-(4-Methanesulfonylpiperazin-1-Yl)Propanamide], the IC50 was 1 to 5 nM.

Regarding `CC(=O)N1CCN(CCOc2ccc3c(Nc4cnnc(-c5cc(Cl)ccc5F)c4)ccnc3c2)CC1` [Example 35, 1-(4-{2-[(4-{[6-(5-Chloro-2-Fluorophenyl)Pyridazin-4-Yl]Amino}Quinolin-7-Yl)Oxy]Ethyl}Piperazin-1-Yl)Ethan-1-One], the IC50 is below 1 nM. With `CS(=O)(=O)N1CCN(CCOc2ccc3c(Nc4cnnc(-c5cc(Cl)ccc5F)c4)ccnc3c2)CC1` [Example 36, N-[6-(5-Chloro-2-Fluorophenyl)Pyridazin-4-Yl]-7-[2-(4-Methanesulfonylpiperazin-1-Yl)Ethoxy]Quinolin-4-Amine], the IC50 was below 1 nM. For the compound `CC(C)c1ccc(F)c(-c2cc(Nc3ccnc4cc(OCCN5CCN(C)CC5)ccc34)cnn2)c1` [Example 37, N-{6-[2-Fluoro-5-(Propan-2-Yl)Phenyl]Pyridazin-4-Yl}-7-[2-(4-Methylpiperazin-1-Yl)Ethoxy]Quinolin-4-Amine], the IC50 is below 1 nM. On the same count and under the same terms, with `CN1CCN(C(=O)c2cc3c(Nc4cnnc(-c5cc(Cl)ccc5F)c4)ccnc3[nH]2)CC1` [Example 38, 6-(5-Chloro-2-Fluorophenyl)-N-[2-(4-Methylpiperazine-1-Carbonyl)-1H-Pyrrolo[2,3-13]Pyridin-4-Yl]Pyridazin-4-Amine] the figure was 1 to 5 nM; with `CN1CCN(C(=O)COc2ccc3c(Nc4cnnc(-c5cc(Cl)ccc5F)c4)ccnc3c2)CC1` [Example 39, 2-[(4-{[6-(5-Chloro-2-Fluorophenyl)Pyridazin-4-Yl]Amino}Quinolin-7-Yl)Oxy]-1-(4-Methylpiperazin-1-Yl)Ethan-1-One], 1 to 5 nM; with `Fc1ccc(Cl)cc1-c1cc(Nc2ccnc3cc(OCCN4CCN(CC(F)(F)F)CC4)ccc23)cnn1` [Example 41, N-[6-(5-Chloro-2-Fluorophenyl)Pyridazin-4-Yl]-7-{2-[4-(2,2,2-Trifluoroethyl)Piperazin-1-Yl]Ethoxy}Quinolin-4-Amine], below 1 nM. Consider `CN(CCOc1ccc2c(Nc3cnnc(-c4cc(Cl)ccc4F)c3)ccnc2c1)C1COC1` [Example 42, N-[6-(5-Chloro-2-Fluorophenyl)Pyridazin-4-Yl]-7-{2-[Methyl(Oxetan-3-Yl)Amino]Ethoxy}Quinolin-4-Amine], for which the IC50 was below 1 nM. For `CC(=O)N1CCCN(CCC(=O)Nc2cc(Nc3cnnc(-c4cc(Cl)ccc4F)c3)ccn2)C1` [Example 43, 3-(3-Acetyl-1,3-Diazinan-1-Yl)-N-(4-{[6-(5-Chloro-2-Fluorophenyl)Pyridazin-4-Yl]Amino}Pyridin-2-Yl)Propanamide], the IC50 lay in the range of 1 to 5 nM. Still for that read-out and setting: next, `CS(=O)(=O)N1CCCN(CCC(=O)Nc2cc(Nc3cnnc(-c4cc(Cl)ccc4F)c3)ccn2)C1` [Example 44, N-(4-{[6-(5-Chloro-2-Fluorophenyl)Pyridazin-4-Yl]Amino}Pyridin-2-Yl)-3-(3-Methanesulfonyl-1,3-Diazinan-1-Yl)Propanamide]: below 1 nM. `O=C(CCN1CCN(CC(F)(F)F)CC1)Nc1cc(Nc2cnnc(-c3cc(Cl)ccc3F)c2)ccn1` [Example 47, N-(4-{[6-(5-Chloro-2-Fluorophenyl)Pyridazin-4-Yl]Amino}Pyridin-2-Yl)-3-[4-(2,2,2-Trifluoroethyl)Piperazin-1-Yl]Propanamide]: the IC50 lay within 1 to 5 nM.

`Cc1nnc(-c2cc(Cl)ccc2F)cc1Nc1ccnc2cc(OCCN3CCN(C)CC3)ccc12` [Example 48, N-[6-(5-Chloro-2-Fluorophenyl)-3-Methylpyridazin-4-Yl]-7-[2-(4-Methylpiperazin-1-Yl)Ethoxy]Quinolin-4-Amine]: the half-inhibitory concentration (IC50) is below 1 nM. Turning to `Cc1nnc(-c2cc(Cl)ccc2F)cc1Nc1ccnc2[nH]c(C(=O)NCCN3CCN(C)CC3)cc12` [Example 49, 4-{[6-(5-Chloro-2-Fluorophenyl)-3-Methylpyridazin-4-Yl]Amino}-N-[2-(4-Methylpiperazin-1-Yl)Ethyl]-M-Pyrrolo[2,3-b]Pyridine-2-Carboxamide], the IC50 is below 1 nM.

`Cc1nnc(-c2cc(Cl)ccc2F)cc1Nc1ccnc2[nH]c(C(=O)N(C)CCN3CCN(C)CC3)cc12` [Example 50, 4-{[6-(5-Chloro-2-Fluorophenyl)-3-Methylpyridazin-4-Yl]Amino}-N-Methyl-N-[2-(4-Methylpiperazin-1-Yl)Ethyl]-1H-Pyrrolo[2,3-b]Pyridine-2-Carboxamide]: the IC50 is below 1 nM. For the compound `CN1CCCN(CCCOc2ccc3c(Nc4cnnc(-c5cc(Cl)ccc5F)c4)ccnc3c2)C1` [Example 52, N-[6-(5-Chloro-2-Fluorophenyl)Pyridazin-4-Yl]-7-[3-(3-Methyl-1,3-Diazinan-1-Yl)Propoxy]Quinolin-4-Amine], the IC50 was below 1 nM.

Take `CN1CC[C@@H](OC(=O)c2ccc3c(Nc4cnnc(-c5cc(Cl)ccc5F)c4)ccnc3c2)C1` [Example 54, (3R)-1-Methylpyrrolidin-3-Yl 4-{[6-(5-Chloro-2-Fluorophenyl)Pyridazin-4-Yl]Amino}Quinoline-7-Carboxylate]: the IC50 fell in the range of 1 to 5 nM.

Take `CN1C[C@@H]2CN(CCOc3ccc4c(Nc5cnnc(-c6cc(Cl)ccc6F)c5)ccnc4c3)C[C@@H]2C1` [Example 55, Cis N-[6-(5-Chloro-2-Fluorophenyl)Pyridazin-4-Yl]-7-(2-{5-Methyl-Octahydropyrrolo[3,4-c]Pyrrol-2-Yl}Ethoxy)Quinolin-4-Amine]: the IC50 is below 1 nM. On the same count and under the same terms, next, `CC(=O)N1CCCN(CCOc2ccc3c(Nc4cnnc(-c5cc(Cl)ccc5F)c4)ccnc3c2)C1` [Example 56, 1-(3-{2-[(4-{[6-(5-Chloro-2-Fluorophenyl)Pyridazin-4-Yl]Amino}Quinolin-7-Yl)Oxy]Ethyl}-1,3-Diazinan-1-Yl)Ethan-1-One]: below 1 nM; `CN1CC[C@H](OC(=O)c2ccc3c(Nc4cnnc(-c5cc(Cl)ccc5F)c4)ccnc3c2)C1` [Example 58, (3S)-1-Methylpyrrolidin-3-Yl 4-{[6-(5-Chloro-2-Fluorophenyl)Pyridazin-4-Yl]Amino}Quinoline-7-Carboxylate]: 1 to 5 nM. On the same count and under the same terms, next, `O=C(CCN1CCCN(CC(F)(F)F)C1)Nc1cc(Nc2cnnc(-c3cc(Cl)ccc3F)c2)ccn1` [Example 59]: 1 to 5 nM; `COC(=O)CCN1CCN(CCOc2ccc3c(Nc4cnnc(-c5cc(Cl)ccc5F)c4)ccnc3c2)CC1` [Example 60, Methyl 3-(4-{2-[(4-{[6-(5-Chloro-2-Fluorophenyl)Pyridazin-4-Yl]Amino}Quinolin-7-Yl)Oxy]Ethyl}Piperazin-1-Yl)Propanoate]: below 1 nM.
